Here are results for 46 compounds from the RepoRT retention time repository.

This series can be described thus: Agilent ZORBAX 300 SB-C18, 150 × 1 mm, 3.5 µm; A: water + 0.01% heptafluorobutyric acid; B: acetonitrile + 0.01% heptafluorobutyric acid; gradient (min/%B) 0/0 100/90. Conditions: stereoisomer not certain.
Turning to `CCC(c1ccc(C)cc1)N(NC(=O)C(O)(c1ccc(C)cc1)c1ccc(C)cc1)C(=O)c1ccccc1` (stereo unspecified), the LC retention time came out at 18.3 min.
The value for `CCCOC(C)n1cccc1-c1ccccc1` (stereo unspecified) was 18 min; that for `CN1CC(=O)N(c2cccc(N)c2)C1=O` was 6.98 min.
The value for `Cc1ccc(CNC(C)(C)C)s1` was 8.46 min; that for `O=C1NCCO1` was 2.05 min; that for `CC(CCc1ccc(O)cc1)NCC(O)c1ccc(O)cc1` (stereo unspecified) was 8.93 min.
Take `O=C(O)c1c2ccccc2nc2ccccc12`: the LC retention time came to 5.86 min.
As for `COc1ccc2c3c1OC1C(=O)CCC4C(C2)N(C)CCC314` (stereo unspecified), the LC retention time was determined as 8.61 min.
The value for `O=c1cnc(-c2ccccc2)c(-c2ccccc2)[nH]1` was 11.1 min.
On to `CC(Cc1ccccc1)N(C)Cc1ccccc1` (stereo unspecified), for which the LC retention time was 10.8 min.
The value for `O=c1[nH]c2ccccc2[nH]c1=S` was 7.24 min.
As for `Nc1ccc(CCc2ccncc2)cc1`, the LC retention time was determined as 7.22 min.
The value for `Cc1cc2cc(N)ccc2n1C` was 8.33 min; that for `COc1c(C)cccc1C(=O)NC(CC(C)C)C(N)=O` (stereo unspecified) was 11.2 min.
For `C=Cc1ccccn1`, the LC retention time came to 6.97 min.
The value for `Cc1cc(N)c2ccccc2[n+]1CCCCCCCCCC[n+]1c(C)cc(N)c2ccccc21` was 10.7 min; that for `Cc1cc(C)cc(N)c1` was 8.29 min.
The value for `Cc1cc(=O)[nH]c(N)n1` was 5.97 min; that for `CN1C(=O)C2CN(CCc3ccccc3)CNC2N(C)C1=O` (stereo unspecified) was 8.29 min; that for `CCNc1cccc(C)c1` was 8.38 min.
The value for `CCN(CC)CCNC(=O)c1ccc(N)cc1` was 7.73 min.
For `Nc1ccncn1`, the LC retention time amounted to 3.44 min.
The value for `O=C1CCCN1c1ccc(O)cc1` was 7.71 min; that for `C=CCC1NC(C)(C)Cc2ccccc21` (stereo unspecified) was 9 min.
The value for `CCNc1ccccc1C` was 8.47 min.
The value for `NC(=O)Nc1ccccc1` was 7.26 min.
`C=CCC(N)(CC=C)C1=CC(CC(=C)C)NC(CC(=C)C)C1` (stereo unspecified): the LC retention time turned out to be 8.79 min.
The value for `CC1=NC(=O)NC(c2ccccc2)C1C(=O)OC(C)C(C)(C)C` (stereo unspecified) was 13.9 min; that for `NCCCCCCO` was 6.25 min.
The value for `O=c1[nH]c(=O)n(CCc2ccccc2)c2c1CN(C1CCCC1)CN2` was 8.61 min.
For `CCC(N)=O`, the LC retention time amounted to 2.3 min.
In the case of `c1ccc2c(c1)ccc1cccnc12`, the LC retention time is 12.7 min.
The value for `Oc1ccc2c(c1)C13CCCCC1(O)C(C2)NCC3` (stereo unspecified) was 8.57 min.
The value for `Cc1cc2ncn(Cc3c(C)c(C)cc(C)c3C)c2cc1C` was 13 min; that for `O=C(O)c1ccc2nccnc2c1` was 7.67 min.
`C=CCN1CCNCC1`: the LC retention time was determined as 7.39 min.
Take `CC(=CCc1ccccc1)N=Nc1nc(=S)[nH][nH]1`: the LC retention time was found to be 10.6 min.
The value for `CC(C)NCCCNC(C)C` was 7.27 min; that for `COc1ccc(C=CC(=O)C=Cc2ccc(OC)cc2)cc1` was 16.1 min.
The value for `CCN(CC)c1ccc(CNCCCN(C)C)cc1` was 7.76 min.
The value for `CCC(=O)Nc1ccc(Oc2ccc(NC(=O)CC)c(NC(=O)CC)c2)cc1` was 10.5 min.
For `NCCc1csc2c1CCCC2`, the LC retention time was 9.41 min.
`O=c1c2n[nH]nc2cnn1-c1ccccc1`: the LC retention time was found to be 8.76 min.
The value for `COC(=O)COC(=O)c1ccccc1NC(=O)c1ccccc1` was 15.1 min; that for `CCCCN` was 6.72 min.
The value for `NC1C(=O)Nc2ccccc21` (stereo unspecified) was 7.8 min.
